Experimental data: patent publication US7662750B2, “Protein-protein interaction antagonist screening libraries based upon 1,4-disubstituted naphthalenes and related scaffolds” (The Research Foundation of State University of New York, priority 2003, dated 2010)
Each block holds one molecule with its values, some of them ahead of it.

What was measured:
HOXA1-PBX1/DNA = molecular target: T1, HOXA1-PBX1/DNA (Mus musculus, UniProt P41778); test: EMSA, formation of HOXA1-PBX1/DNA ternary complex; format: binding; conditions: for Selectivity for HOXA1-PBX1/DNA ternary complex relative to the other complexes tested: versus PBX1/DNA, BRN1/DNA, BRN2/DNA
T1 construct: the mouse/human 233-319 PBX1 protein
T1 sequence (P41778 233-319): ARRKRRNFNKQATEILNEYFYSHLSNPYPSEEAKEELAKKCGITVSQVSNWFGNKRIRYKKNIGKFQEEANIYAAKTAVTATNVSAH

BRN1/DNA = molecular target: T2, BRN1/DNA (Mus musculus, UniProt P31361); test: EMSA, BRN1/DNA complex (nuclear extracts from RA treated P19 cells); format: binding; conditions: EMSA with BRN1 recognition element probe
T2 construct: using nuclear extracts from RA treated P19 cells; endogenous in cells; host or cells: RA-treated P19 cells, nuclear extract
T2 sequence (P31361 1-497): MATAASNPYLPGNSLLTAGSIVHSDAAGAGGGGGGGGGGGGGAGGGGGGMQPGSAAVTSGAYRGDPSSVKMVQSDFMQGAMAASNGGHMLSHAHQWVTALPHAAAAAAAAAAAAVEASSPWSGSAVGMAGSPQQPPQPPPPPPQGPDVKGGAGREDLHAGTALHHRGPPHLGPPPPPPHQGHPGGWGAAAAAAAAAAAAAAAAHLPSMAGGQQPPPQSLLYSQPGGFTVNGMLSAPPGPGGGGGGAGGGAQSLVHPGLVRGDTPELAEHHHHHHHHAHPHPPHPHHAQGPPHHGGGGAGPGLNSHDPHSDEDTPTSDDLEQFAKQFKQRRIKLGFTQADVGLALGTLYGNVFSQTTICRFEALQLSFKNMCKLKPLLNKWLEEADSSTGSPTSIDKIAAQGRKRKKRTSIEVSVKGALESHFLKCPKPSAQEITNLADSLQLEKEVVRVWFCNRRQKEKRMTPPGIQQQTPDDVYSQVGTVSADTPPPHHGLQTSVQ
Method: (§1) The selectivity of individual members of the library for the HOXA1-PBX1/DNA target, as well as the ability of some analogs to cross over to other transcription factor targets was evaluated by testing them in parallel against the BRN1 & BRN2 transcription factors. BRN1 and BRN2 are members of mammalian class III POU transcription factor family and are expressed in the developing embryonic brain (McEvilly et al., Science 295:1528 (2002), which is hereby incorporated by reference in its entirety). POU domain class transciption factors contain, in addition to the POU domain, a homeodomain helix-turn-helix class DNA binding motif similar to that found in the HOX and PBX class transcription factors (Josephson et al., Development 125:3087 (1998); Hara et al., PNAS 89(8):3280 (1992), which are hereby incorporated by reference in their entirety). EMSAs were performed with BRN1 & BRN2 exactly as was done with HOXA1-PBX1 except that a sequence recognition element known to bind BRN1/BRN2 was used as the probe (Pruitt et al., Gene Expression Patterns 4(6):671 (2004), which is hereby incorporated by reference in its entirety).

BRN2/DNA = molecular target: T3, BRN2/DNA (Mus musculus, UniProt P31360); test: EMSA, BRN2/DNA complex (nuclear extracts from RA treated P19 cells); format: binding; conditions: EMSA with BRN2 recognition element probe
T3 construct: using nuclear extracts from RA treated P19 cells; endogenous in cells; host or cells: RA-treated P19 cells, nuclear extract
Method: as §1

PBX1/DNA = molecular target: T4, PBX1/DNA (Mus musculus, UniProt P41778); test: EMSA, formation of PBX1/DNA binary complex (FIG. 1); format: binding; conditions: for Inhibition of formation of the PBX1/DNA binary complex: FIG. 1
T4 construct: the mouse/human 233-319 PBX1 protein
T4 sequence (P41778 233-319): T1 sequence (P41778 233-319)
Description: Antagonist 31 differs from compound 15 by replacing the small cyclopropyl R1 with the larger 4-hydroxyphenyl group. […] On the other hand, both antagonists can bind in the hydrophobic pocket thereby preventing HOXA1 from binding to the binary complex. Upon closer evaluation of the compound 31 dose-response of the binary PBX/DNA band intensity relative to the ternary HOXA1-PBX/DNA band intensity, it was noted that the binary PBX/DNA band initially “increased” in intensity at low compound 31 concentrations. […] As the concentration of compound 31 is further increased, the binary PBX/DNA complex formation is inhibited enough to overcome the release of this binary complex from the ternary complex and, therefore, the binary band intensity begins to decrease.

[1] = molecular target: T5, HOX-PBX1 cooperative DNA binding (Homo sapiens, UniProt P40424); conditions: literature value (Knoepfler et al. 1995); read-out: IC50 for blocking cooperative HOX-PBX DNA binding; cited from earlier work
T5 sequence (P40424 1-430): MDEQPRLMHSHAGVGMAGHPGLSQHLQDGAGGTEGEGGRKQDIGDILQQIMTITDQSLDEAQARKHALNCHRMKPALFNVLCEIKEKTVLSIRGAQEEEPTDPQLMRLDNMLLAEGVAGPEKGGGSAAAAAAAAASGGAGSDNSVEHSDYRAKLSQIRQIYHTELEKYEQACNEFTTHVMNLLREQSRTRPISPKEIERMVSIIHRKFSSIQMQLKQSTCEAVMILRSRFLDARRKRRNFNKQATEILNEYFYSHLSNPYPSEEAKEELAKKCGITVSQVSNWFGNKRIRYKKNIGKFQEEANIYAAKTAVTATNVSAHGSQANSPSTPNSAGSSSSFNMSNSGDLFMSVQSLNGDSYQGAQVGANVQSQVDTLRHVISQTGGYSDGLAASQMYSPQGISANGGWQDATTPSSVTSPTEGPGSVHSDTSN

[2] = Table 1, EMSA, averaged densitometric analysis of multiple gels
[3] = Table 2, 5,6,7,8-tetrahydro-naphthalenes
[4] = Table 3, tricyclo[6.2.2.0^2,7]dodeca-2(7),3,5-trienes

T3 sequence (P31360 whole entry): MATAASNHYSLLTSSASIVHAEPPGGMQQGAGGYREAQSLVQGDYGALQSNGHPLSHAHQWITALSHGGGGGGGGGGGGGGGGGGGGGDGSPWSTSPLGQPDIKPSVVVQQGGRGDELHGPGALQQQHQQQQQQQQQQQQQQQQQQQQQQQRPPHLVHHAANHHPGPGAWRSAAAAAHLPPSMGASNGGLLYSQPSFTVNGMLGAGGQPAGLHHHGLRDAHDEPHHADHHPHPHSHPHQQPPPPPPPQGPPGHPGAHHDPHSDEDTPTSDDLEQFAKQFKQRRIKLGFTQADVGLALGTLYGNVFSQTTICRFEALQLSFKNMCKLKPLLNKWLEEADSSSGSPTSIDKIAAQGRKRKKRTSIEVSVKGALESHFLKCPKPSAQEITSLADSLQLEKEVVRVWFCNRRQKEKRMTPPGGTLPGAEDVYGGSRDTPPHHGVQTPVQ

Molecule: NC(=O)COc1ccc(C(=O)Nc2cccc(F)c2)c2ccccc12 [Compound 7]
IC50 (HOXA1-PBX1/DNA; [2]): 272 µM

Molecule: CC(C)NC(=O)COc1ccc(C(=O)Nc2cccc(F)c2)c2ccccc12 [Compound 12]
IC50 (HOXA1-PBX1/DNA; [2]): 272 µM

Molecule: O=C(COc1ccc(C(=O)Nc2cccc(F)c2)c2ccccc12)NC1CC1 [Compound 15]
IC50 (HOXA1-PBX1/DNA; [2]): 173 µM
Selectivity for HOXA1-PBX1/DNA ternary complex relative to the other complexes tested (HOXA1-PBX1/DNA): selective
IC50 (BRN1/DNA): 810 µM
IC50 (BRN2/DNA): > 10000 µM
Inhibition of formation of the PBX1/DNA binary complex (PBX1/DNA): ternary complex only

Molecule: O=C(COc1ccc(C(=O)Nc2cccc(F)c2)c2ccccc12)Nc1cccc(O)c1 [Compound 30]
IC50 (HOXA1-PBX1/DNA; [2]): 86 µM
IC50 (BRN1/DNA): 142 µM
IC50 (BRN2/DNA): 148 µM

Molecule: O=C(COc1ccc(C(=O)Nc2cccc(F)c2)c2ccccc12)Nc1ccc(O)cc1 [Compound 31]
IC50 (HOXA1-PBX1/DNA; [2]): 65 µM
Selectivity for HOXA1-PBX1/DNA ternary complex relative to the other complexes tested (HOXA1-PBX1/DNA): some selectivity
IC50 (BRN1/DNA): 124 µM
IC50 (BRN2/DNA): 138 µM
Inhibition of formation of the PBX1/DNA binary complex (PBX1/DNA): inhibited
Binary PBX/DNA band intensity at low compound concentrations (PBX1/DNA; dose-response, low concentrations): increased

Molecule: COc1ccc(NC(=O)COc2ccc(C(=O)Nc3cccc(F)c3)c3ccccc23)cc1OC [Compound 34]
IC50 (HOXA1-PBX1/DNA; [2]): 464 µM

Molecule: O=C(COc1ccc(C(=O)Nc2cccc(F)c2)c2c1CCCC2)NC1CC1 [Compound 48]
IC50 (HOXA1-PBX1/DNA; [3]): 66 µM

Molecule: O=C(COc1ccc(C(=O)Nc2cccc(F)c2)c2c1CCCC2)Nc1ccc(O)cc1 [Compound 50]
IC50 (HOXA1-PBX1/DNA; [3]): 96 µM

Molecule: O=C(COc1ccc(C(=O)Nc2cccc(F)c2)c2c1C1CCC2CC1)NC1CC1 [Compound 61]
IC50 (HOXA1-PBX1/DNA; [4]): 562 µM

Molecule: O=C(COc1ccc(C(=O)Nc2cccc(F)c2)c2c1C1CCC2CC1)Nc1ccc(O)cc1 [Compound 62]
IC50 (HOXA1-PBX1/DNA; [4]): 196 µM

Molecule: O=C(COc1ccc(C(=O)Nc2cccc(F)c2)c2c1C1CCC2CC1)NCC(F)(F)F [Compound 63, 6-[(2,2,2-Trifluoro-ethylcarbamoyl)-methoxy]-tricyclo[6.2.2.0^2,7]dodeca-2,4,6-triene-3-carboxylic Acid (3-fluoro-phenyl)-amide]
IC50 (HOXA1-PBX1/DNA; [4]): 258 µM

Molecule: QPQIYPWMRKLH
IC50 [1]: 100 µM

The next lines start with the values.

IC50 (HOXA1-PBX1/DNA; [2]): 278 µM
Molecule: CCCNC(=O)COc1ccc(C(=O)Nc2cccc(F)c2)c2ccccc12 [Compound 11]

IC50 (HOXA1-PBX1/DNA; [2]): 298 µM
Molecule: CC(C)CNC(=O)COc1ccc(C(=O)Nc2cccc(F)c2)c2ccccc12 [Compound 13]

IC50 (HOXA1-PBX1/DNA; [2]): 331 µM
Molecule: C#CCNC(=O)COc1ccc(C(=O)Nc2cccc(F)c2)c2ccccc12 [Compound 16]

IC50 (HOXA1-PBX1/DNA; [2]): 111 µM
IC50 (BRN1/DNA): 162 µM
IC50 (BRN2/DNA): 204 µM
Molecule: O=C(COc1ccc(C(=O)Nc2cccc(F)c2)c2ccccc12)NCC(F)(F)F [Compound 17]

IC50 (HOXA1-PBX1/DNA; [2]): 254 µM
Molecule: O=C(COc1ccc(C(=O)Nc2cccc(F)c2)c2ccccc12)Nc1ccccc1 [Compound 23]

IC50 (HOXA1-PBX1/DNA; [2]): 293 µM
Molecule: O=C(COc1ccc(C(=O)Nc2cccc(F)c2)c2ccccc12)Nc1ccc(F)cc1 [Compound 26]

IC50 (HOXA1-PBX1/DNA; [2]): 718 µM
Molecule: COc1ccccc1NC(=O)COc1ccc(C(=O)Nc2cccc(F)c2)c2ccccc12 [Compound 27]

IC50 (HOXA1-PBX1/DNA; [2]): 580 µM
Molecule: COc1cccc(NC(=O)COc2ccc(C(=O)Nc3cccc(F)c3)c3ccccc23)c1 [Compound 28]

IC50 (HOXA1-PBX1/DNA; [2]): 161 µM
Molecule: COc1ccc(NC(=O)COc2ccc(C(=O)Nc3cccc(F)c3)c3ccccc23)cc1 [Compound 29]

IC50 (HOXA1-PBX1/DNA; [3]): 84 µM
Molecule: O=C(COc1ccc(C(=O)Nc2cccc(F)c2)c2c1CCCC2)NCC(F)(F)F [Compound 49]
